{
  "source": "patent US20080070984A1",
  "about": "“Compositions and Methods of Treating Schizophrenia” (priority 2006, published 2008)",
  "assay": "Uptake of colonically absorbable forms of levodopa after intracolonic administration in rats",
  "assay_type": "in vivo",
  "settings": "whole blood, other: intracolonic (directly into the colon via cannula), rat, intraperitoneal carbidopa",
  "method": "Sustained release oral dosage forms, which release drug slowly over periods of about 6 to about 24 hours, generally release a significant proportion of the dose within the colon. Thus, drugs suitable for use in such dosage forms should be colonically absorbed.\nRats were obtained commercially and were pre-cannulated in the both the ascending colon and the jugular vein. Animals were conscious at the time of the experiment. […] Carbidopa was administered as a solution in water or citrate buffer either orally, intraperitoneally, or intracolonically at a dose equivalent to 25 mg of carbidopa per kg. […] Blood was then further quenched with methanol/perchloric acid to prevent hydrolysis of the levodopa prodrug. Blood samples were analyzed as described below.\nMethanol/perchloric acid (300 μL) was added to blank 1.5 mL Eppendorf tubes. Rat blood (300 μL) was collected into EDTA tubes containing 75 μL of sodium metabisulfite at different times and vortexed to mix. A fixed volume of blood (100 μL) was immediately added into the Eppendorf tube and vortexed to mix. […] Methanol/perchloric acid (300 μL of 50/50) was then added into each tube followed by the addition of 20 μL of p-chlorophenylalanine. The samples were vortexed and centrifuged at 14,000 rpm for 10 min. The supernatant was analyzed by LC/MS/MS. […]",
  "data": [
    {"smiles": "N[C@@H](Cc1ccc(O)c(O)c1)C(=O)O", "note": "[levodopa]", "values": [
      {"measurement": "bioavailability", "result": 3, "unit": "%"}
    ]}
  ]
}
